This assay concerns the target Nicotinamide phosphoribosyltransferase (Homo sapiens, UniProt P43490). The experiment in a line: NMN Fluorescence Biochemical Assay. How it is done:
Compounds described herein were assayed for their ability to stimulate the synthesis of nicotinamide mononucleotide (NMN) by the enzyme NAMPT. The human recombinant enzyme assay measures the activation of the enzyme activity by compounds using recombinant enzyme and substrates in a buffered cell-free system. The assay conditions closely mimic cellular environments. Dose responses were measured using an assay to detect the formation of nicotinamide mono-nucleotide. All experiments were performed in the 384-well format. Generally, 0.5 μL of DMSO containing varying concentrations of the test compound was mixed with 10 μL of the enzyme reagent solution. Enzyme reactions were initiated with the addition of […] containing the substrates. The final assay conditions were as follows: 6 nM human NAMPT, 2.5 mM ATP, 20 μM PRPP and 150 μM nicotinamide in 50 mM HEPES, pH 7.2, 1 mM DTT, 1 mM CHAPS 50 mM NaCl, 100 mM MgCl2. Following an incubation of 60 min at ambient temperature, 10 μL of 20% acetophenone in DMSO was added, followed by 10 μL of 2 M KOH and 40 μL of formic acid. The plates were read for fluorescence (Excitation/Emission=355 nm/460 nm) using an EnVision plate reader after 40 mins of incubation at ambient temperature.

For orientation: pEC50 means −log10 of the EC50, conventionally taken in molar units. Low readings indicate a large EC50, high ones a small EC50.

pEC50: −log10 of the molar value.

Chain of Nicotinamide phosphoribosyltransferase (P43490 whole entry): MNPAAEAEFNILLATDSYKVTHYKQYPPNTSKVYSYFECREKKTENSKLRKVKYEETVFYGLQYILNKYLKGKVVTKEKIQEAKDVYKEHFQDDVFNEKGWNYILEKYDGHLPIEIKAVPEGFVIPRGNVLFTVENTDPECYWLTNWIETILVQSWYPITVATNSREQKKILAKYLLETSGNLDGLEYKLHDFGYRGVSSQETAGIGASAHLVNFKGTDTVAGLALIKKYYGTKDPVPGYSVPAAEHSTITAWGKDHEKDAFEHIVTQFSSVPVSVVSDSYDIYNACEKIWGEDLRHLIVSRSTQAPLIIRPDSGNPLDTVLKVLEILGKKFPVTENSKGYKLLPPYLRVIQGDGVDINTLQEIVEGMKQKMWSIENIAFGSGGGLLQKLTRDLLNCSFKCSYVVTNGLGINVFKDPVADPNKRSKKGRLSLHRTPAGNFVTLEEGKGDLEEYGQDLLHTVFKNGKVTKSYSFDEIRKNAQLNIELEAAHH

With `O=C(Nc1ccc(CC2CCN(CC(F)F)CC2)cc1)OCc1ccncc1` [US20240279215, Compound 52], the pEC50 is 5.27.

In the case of `O=C(Nc1ccc(CN2C(=O)CC[C@@H]2c2cccnc2)cc1)OCc1ccc(Cl)cc1` [US20240279215, Compound 249], the negative logarithm of the EC50 (pEC50) was 4.80.

In the case of `CN(Cc1ccccc1)S(=O)(=O)c1ccc(NC(=O)OCc2ccc(Cl)cc2)cc1` [US20240279215, Compound 335], the negative logarithm of the EC50 (pEC50) is 5.10.

`CN(C1CCOC1)S(=O)(=O)c1ccc(NC(=O)OCc2ccc(Cl)cc2)cc1` (centres undefined) [US20240279215, Compound 342]: the pEC50 is 4.94.

Values taken from BindingDB's records for patent US20240279215 (Cytokinetics, Incorporated, 2024).
